Measurements published in ChEMBL document CHEMBL1201862, “PubChem BioAssay data set” (2004).
Activity calls are given as the source filed them.

Legend:
Leucine aminopeptidase = target: T1, Leucine aminopeptidase (Plasmodium falciparum 3D7, UniProt Q8IL11); assay: P. falciparum M17LAP inhibitors, primary screen, biochemical, fluorogenic H-Leu-NHMec substrate, 1536-well (AID 1619); format: functional
T1 sequence (Q8IL11 whole entry): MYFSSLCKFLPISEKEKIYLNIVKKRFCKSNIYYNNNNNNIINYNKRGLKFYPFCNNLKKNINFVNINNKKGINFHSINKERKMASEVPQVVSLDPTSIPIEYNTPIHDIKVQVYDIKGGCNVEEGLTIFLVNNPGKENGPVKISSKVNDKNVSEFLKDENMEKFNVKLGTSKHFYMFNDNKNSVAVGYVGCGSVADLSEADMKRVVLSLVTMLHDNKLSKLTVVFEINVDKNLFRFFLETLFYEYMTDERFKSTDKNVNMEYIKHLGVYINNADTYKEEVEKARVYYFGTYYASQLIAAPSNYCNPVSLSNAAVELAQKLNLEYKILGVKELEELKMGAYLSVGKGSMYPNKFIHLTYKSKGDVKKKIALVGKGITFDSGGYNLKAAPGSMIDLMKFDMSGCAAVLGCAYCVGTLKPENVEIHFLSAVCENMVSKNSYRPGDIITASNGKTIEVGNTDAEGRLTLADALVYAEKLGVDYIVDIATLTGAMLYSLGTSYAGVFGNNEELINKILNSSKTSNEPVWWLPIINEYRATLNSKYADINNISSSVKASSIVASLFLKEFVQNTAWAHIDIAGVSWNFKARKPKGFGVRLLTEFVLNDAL

[1] = target: T2, High affinity choline transporter 1 (Homo sapiens, UniProt Q9GZV3); assay: human choline transporter blockers, potency – cell-based, 5-point CRC, membrane potential dye, dose response (AID 504840); format: functional
T2 sequence (Q9GZV3 whole entry): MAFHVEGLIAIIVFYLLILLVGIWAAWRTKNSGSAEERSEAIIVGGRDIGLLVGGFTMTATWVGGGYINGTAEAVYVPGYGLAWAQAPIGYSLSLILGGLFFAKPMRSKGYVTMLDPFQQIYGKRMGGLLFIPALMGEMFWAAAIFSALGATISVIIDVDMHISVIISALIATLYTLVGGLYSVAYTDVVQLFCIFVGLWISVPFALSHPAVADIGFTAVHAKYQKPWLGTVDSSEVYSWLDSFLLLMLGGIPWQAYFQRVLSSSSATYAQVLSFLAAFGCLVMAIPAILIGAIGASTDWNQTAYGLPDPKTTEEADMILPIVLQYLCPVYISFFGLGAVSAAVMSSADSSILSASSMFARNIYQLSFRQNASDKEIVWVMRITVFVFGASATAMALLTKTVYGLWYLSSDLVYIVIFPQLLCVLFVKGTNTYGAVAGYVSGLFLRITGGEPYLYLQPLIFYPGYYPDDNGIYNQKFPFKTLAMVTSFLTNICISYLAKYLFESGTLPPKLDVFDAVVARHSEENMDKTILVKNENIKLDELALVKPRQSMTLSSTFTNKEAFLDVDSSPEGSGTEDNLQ

[2] = target: 26S proteasome non-ATPase regulatory subunit 14 (Homo sapiens, UniProt O00487); assay: inhibition of proteasome subunit RPN11 – biochemical, fluorescence polarization, uHTS hits, confirmation (AID 602368); format: functional
26S proteasome non-ATPase regulatory subunit 14, sequence (O00487 whole entry): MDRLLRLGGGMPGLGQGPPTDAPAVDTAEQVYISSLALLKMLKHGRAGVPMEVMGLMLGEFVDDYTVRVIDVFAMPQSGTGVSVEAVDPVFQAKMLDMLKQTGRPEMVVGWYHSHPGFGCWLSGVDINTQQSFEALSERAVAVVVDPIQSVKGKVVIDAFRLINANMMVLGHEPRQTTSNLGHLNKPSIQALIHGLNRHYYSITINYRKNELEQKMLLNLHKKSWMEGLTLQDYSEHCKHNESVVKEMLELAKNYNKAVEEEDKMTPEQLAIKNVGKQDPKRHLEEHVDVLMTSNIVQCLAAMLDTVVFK

[3] = target: 72 kDa type IV collagenase (Homo sapiens, UniProt P08253); assay: Dose Response validation of uHTS RPN11 inhibitor hits using a MMP-2 Fluorescence assay.; format: functional
72 kDa type IV collagenase, sequence (P08253 whole entry): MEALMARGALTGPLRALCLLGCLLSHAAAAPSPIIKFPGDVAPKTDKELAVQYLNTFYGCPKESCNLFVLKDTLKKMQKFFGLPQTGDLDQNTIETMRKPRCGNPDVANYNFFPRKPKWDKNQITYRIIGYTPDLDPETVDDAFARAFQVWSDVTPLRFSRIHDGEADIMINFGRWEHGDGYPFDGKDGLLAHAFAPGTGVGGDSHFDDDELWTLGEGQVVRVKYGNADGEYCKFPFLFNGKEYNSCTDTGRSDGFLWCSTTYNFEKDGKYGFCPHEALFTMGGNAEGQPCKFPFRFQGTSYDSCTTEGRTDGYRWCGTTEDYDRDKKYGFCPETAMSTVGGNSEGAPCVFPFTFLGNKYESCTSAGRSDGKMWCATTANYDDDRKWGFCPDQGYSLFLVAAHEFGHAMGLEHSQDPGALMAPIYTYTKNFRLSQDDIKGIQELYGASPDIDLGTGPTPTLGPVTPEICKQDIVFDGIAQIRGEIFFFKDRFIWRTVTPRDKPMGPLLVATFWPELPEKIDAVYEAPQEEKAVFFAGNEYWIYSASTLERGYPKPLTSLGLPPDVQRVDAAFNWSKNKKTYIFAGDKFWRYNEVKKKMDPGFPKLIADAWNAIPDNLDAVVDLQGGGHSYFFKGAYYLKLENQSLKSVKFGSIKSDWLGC

Prothrombin = Prothrombin (Bos taurus, UniProt P00735); assay: thrombin protease inhibitors – biochemical, fluorescence polarization, uHTS hits, dose response (AID 602369); format: functional
[4] = blockers of HIV-1 envelope-mediated cell-cell fusion – cherry-pick, dose response (AID 652057); format: functional, cell-based
[5] = blockers of HIV-1 ZM109 envelope-driven cell-cell fusion – HeLa effector, CEM target cells, luciferase, cherry-pick, dose response (AID 652058); format: functional, cell-based;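 also: luciferase signal from HIV-1 Env mediated cell-cell fusion of effector and target cells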
[6] = HIV-1 AD8 envelope cell-cell fusion blockers – cherry-pick, dose response (AID 652062); format: functional, cell-based;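 also: luciferase signal from cell-cell fusion driven by HIV-1 clade B AD8 Env; potency is for inhibitors of fusion seen as a drop in luminescence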
Beta-galactosidase = Beta-galactosidase (Escherichia coli, UniProt Q8VNN2); assay: Dose response counterscreen for EBI2 assay utilizing the enzyme, b-galactosidase.; format: functional
Beta-galactosidase, sequence (Q8VNN2 whole entry): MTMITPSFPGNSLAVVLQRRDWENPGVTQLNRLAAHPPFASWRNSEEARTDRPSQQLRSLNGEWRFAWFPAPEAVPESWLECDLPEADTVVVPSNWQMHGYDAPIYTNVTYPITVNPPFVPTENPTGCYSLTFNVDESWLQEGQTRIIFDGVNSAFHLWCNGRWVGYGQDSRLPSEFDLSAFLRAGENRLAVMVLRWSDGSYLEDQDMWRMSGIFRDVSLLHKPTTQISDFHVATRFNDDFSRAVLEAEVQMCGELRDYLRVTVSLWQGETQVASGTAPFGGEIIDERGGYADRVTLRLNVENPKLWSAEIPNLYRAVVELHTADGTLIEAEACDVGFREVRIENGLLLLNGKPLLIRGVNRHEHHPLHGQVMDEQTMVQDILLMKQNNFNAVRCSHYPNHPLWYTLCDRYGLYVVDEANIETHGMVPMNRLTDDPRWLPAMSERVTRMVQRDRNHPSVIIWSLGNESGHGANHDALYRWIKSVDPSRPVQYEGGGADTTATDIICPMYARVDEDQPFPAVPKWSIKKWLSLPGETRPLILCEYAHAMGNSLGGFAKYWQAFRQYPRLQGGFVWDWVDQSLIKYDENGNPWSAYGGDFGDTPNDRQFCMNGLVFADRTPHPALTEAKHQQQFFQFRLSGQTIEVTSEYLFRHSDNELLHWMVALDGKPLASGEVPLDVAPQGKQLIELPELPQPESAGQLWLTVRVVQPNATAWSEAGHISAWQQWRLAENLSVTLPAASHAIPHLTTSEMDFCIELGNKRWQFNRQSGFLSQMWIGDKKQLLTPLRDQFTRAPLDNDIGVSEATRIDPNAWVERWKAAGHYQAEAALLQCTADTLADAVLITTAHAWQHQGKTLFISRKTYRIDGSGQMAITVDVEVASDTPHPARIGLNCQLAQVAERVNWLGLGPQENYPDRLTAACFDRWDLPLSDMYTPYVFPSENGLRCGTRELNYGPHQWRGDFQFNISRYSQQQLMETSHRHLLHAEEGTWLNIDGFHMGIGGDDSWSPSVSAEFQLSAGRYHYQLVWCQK

Paired box protein Pax-8 = Paired box protein Pax-8 (Homo sapiens, UniProt Q06710); assay: PAX8 transcriptional activity inhibition in RMG-I – RMG-I cells, luciferase, cherry-pick, dose response (AID 687027); format: functional, cell-based;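 also: luciferase reporter driven by Pax8 target thyroperoxidase promoter measured by SteadyGlo luminescence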
Paired box protein Pax-8, sequence (Q06710 whole entry): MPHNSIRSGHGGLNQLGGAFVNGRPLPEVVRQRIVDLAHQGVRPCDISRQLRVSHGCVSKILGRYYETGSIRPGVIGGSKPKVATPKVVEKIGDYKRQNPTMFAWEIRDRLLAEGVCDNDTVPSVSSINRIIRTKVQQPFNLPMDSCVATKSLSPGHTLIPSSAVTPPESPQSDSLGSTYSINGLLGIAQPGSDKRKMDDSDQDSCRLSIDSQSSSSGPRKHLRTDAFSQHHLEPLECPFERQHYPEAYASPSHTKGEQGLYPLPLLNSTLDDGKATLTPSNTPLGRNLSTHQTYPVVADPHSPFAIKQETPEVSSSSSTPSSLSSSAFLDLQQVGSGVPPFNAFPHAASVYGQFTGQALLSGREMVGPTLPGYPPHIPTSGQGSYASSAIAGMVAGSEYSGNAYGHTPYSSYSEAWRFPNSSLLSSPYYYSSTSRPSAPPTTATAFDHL

Large T antigen = Large T antigen (Simian virus 40, UniProt P03070); format: functional, Betapolyomavirus macacae;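 also: Confirmatory-stage PubChem screen for compounds that inhibit SV40 T antigen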
Large T antigen, sequence (P03070 whole entry): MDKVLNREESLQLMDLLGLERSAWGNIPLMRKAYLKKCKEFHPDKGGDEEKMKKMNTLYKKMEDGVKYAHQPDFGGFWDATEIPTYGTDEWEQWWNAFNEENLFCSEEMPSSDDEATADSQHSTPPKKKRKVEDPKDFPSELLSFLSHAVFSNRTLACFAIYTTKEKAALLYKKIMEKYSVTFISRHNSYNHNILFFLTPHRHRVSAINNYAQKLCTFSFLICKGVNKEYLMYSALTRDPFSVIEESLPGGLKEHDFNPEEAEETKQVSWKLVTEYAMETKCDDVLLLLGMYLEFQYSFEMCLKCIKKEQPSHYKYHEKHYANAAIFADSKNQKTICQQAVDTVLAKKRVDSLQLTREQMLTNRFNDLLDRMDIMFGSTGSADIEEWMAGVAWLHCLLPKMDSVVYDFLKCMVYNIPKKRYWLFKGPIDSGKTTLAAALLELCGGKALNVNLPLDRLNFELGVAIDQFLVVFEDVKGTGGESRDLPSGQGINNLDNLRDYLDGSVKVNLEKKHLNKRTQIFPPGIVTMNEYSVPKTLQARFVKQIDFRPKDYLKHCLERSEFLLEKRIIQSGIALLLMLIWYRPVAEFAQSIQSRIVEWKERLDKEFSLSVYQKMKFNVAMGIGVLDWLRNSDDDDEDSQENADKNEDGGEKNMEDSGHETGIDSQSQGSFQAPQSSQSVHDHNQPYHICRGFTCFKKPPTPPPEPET

[7] = target: Induced myeloid leukemia cell differentiation protein Mcl-1 (Homo sapiens, UniProt Q07820); format: functional
Induced myeloid leukemia cell differentiation protein Mcl-1, sequence (Q07820 whole entry): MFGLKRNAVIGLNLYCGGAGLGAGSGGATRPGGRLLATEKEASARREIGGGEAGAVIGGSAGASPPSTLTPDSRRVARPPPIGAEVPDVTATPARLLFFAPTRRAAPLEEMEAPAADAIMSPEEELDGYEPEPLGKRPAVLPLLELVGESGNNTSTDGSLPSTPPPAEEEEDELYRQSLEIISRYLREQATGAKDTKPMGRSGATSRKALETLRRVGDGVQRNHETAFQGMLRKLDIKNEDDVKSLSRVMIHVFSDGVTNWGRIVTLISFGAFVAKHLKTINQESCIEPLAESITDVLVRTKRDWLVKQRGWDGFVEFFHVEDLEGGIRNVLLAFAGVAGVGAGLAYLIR

[8] = target: FAD-linked sulfhydryl oxidase ALR (Homo sapiens, UniProt P55789); assay: ALR-catalysed DTT oxidation blockers – biochemical, H2O2 detection, luminescence, cherry-pick, dose response (AID 493248)
FAD-linked sulfhydryl oxidase ALR, sequence (P55789 whole entry): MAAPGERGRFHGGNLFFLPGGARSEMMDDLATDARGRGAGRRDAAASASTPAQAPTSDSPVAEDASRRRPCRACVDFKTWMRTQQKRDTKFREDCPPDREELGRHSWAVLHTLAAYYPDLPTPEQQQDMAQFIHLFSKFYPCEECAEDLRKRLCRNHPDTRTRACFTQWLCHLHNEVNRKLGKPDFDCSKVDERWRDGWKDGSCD

[9] = target: T3, Probable nicotinate-nucleotide adenylyltransferase (Staphylococcus aureus (strain N315), UniProt P65502); format: functional, Staphylococcus aureus subsp. aureus N315;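 as to IC50 Mean: confirmatory dose-response retesting of NadD inhibitor hits first found in an ultra-high-throughput screen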
T3 sequence (P65502 whole entry): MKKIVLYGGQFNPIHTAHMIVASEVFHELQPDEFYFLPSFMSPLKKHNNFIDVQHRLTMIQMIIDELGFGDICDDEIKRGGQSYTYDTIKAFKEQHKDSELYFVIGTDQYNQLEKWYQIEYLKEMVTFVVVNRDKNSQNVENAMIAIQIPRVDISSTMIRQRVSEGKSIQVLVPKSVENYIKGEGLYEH

[10] = target: T3, Probable nicotinate-nucleotide adenylyltransferase; format: functional, Staphylococcus aureus subsp. aureus N315; settings: read-out: IC50_Mean

O=c1[nH][nH]c(=O)c2cc(N3CCCC3)ccc12
IC50 (Leucine aminopeptidase): 70.7 µM (active)

CC1CCCC(C)N1CCCNC(=O)CN1C(=O)c2cccnc2Oc2ccc(Cl)cc21 (stereo unspecified)
IC50 [1]: 13.8 µM (active)

NC(=O)CC(NC(=O)c1ccc(Br)cc1)c1ccc(NC2CCCCCC2)c([N+](=O)[O-])c1 (stereo unspecified)
IC50 [2]: 31.6 µM (active)
IC50 [3]: > 100 µM (inactive)
IC50 (Prothrombin): 88.5 µM (active)

COc1ccccc1CNC(=O)C[C@H]1C[C@@H]2c3cc(NS(=O)(=O)c4ccc(F)cc4)ccc3O[C@@H]2[C@H](CO)O1
AC50 [4]: < 0.26 µM (active)
AC50 [5]: < 0.26 µM (active)
AC50 [6]: < 0.26 µM (active)

CCOC(=O)/C=C/C(=O)Nc1cc(S(=O)(=O)Nc2ccc(OC)cc2)ccc1N1CCOCC1
IC50 (Beta-galactosidase): > 80 µM (inactive)
AC50 (Paired box protein Pax-8): 5.42 µM (active)

C[C@H]1CN([C@@H](C)CO)S(=O)(=O)c2ccc(-c3cccc(C#N)c3)cc2O[C@H]1CN(C)Cc1cccc(F)c1
AC50 [4]: 45.7 µM (active)
AC50 [5]: 43.1 µM (active)

COc1cc(C(=O)Nc2ccc(N(C)C)cc2)cc(OC)c1OC
IC50 (Large T antigen): 6.34 µM (active)
IC50 [7]: 4.78 µM (not active)
AC50 [8]: 1.31 µM (active)

Cc1cc(C)c(S(=O)(=O)N2CCN(C(=O)c3ccc(-n4nc(C)c(Cl)c4C)cc3)CC2)c(C)c1
IC50 (Beta-galactosidase): > 80 µM (inactive)

Cc1ccc(S(=O)(=O)CCC(=O)OC(C)C(=O)N2CCc3ccccc32)cc1 (stereo unspecified)
IC50 [1]: 12.6 µM (active)

Cc1ccc(Oc2ncc(-c3ccc(Cl)cc3)cn2)cc1
IC50 (Beta-galactosidase): > 80 µM (inactive)

COc1ccc(/C=C2/C(=O)NC(=S)N(C3CC3)C2=O)cc1CN1C(=O)c2ccccc2C1=O
IC50 (Large T antigen): 48.5 µM (active)
IC50 [7]: 5.54 µM (active)

COc1ccc(C=C2SC(=S)N(CCCC(=O)Nc3ccc(C(=O)O)c(O)c3)C2=O)cc1OC
IC50 [2]: 26.2 µM (active)
IC50 [3]: > 100 µM (inactive)
IC50 (Prothrombin): 35.3 µM (active)

N#C/C(=C\c1ccccc1)C(=O)Nc1cc(S(=O)(=O)N2CCOCC2)ccc1N1CCCC1
IC50 (Beta-galactosidase): > 80 µM (inactive)

N#CC1=C(S)N=C(N)C(c2nc(-c3ccccc3)cs2)C12CCCCC2 (stereo unspecified)
IC50 [9]: 10.4 µM (active)
IC50 [10]: 23.2 µM (active)
